Measured values taken from US9242987B2, “Heterocyclyl pyrazolopyrimidine analogues as JAK inhibitors” (Cellzome Limited, priority 2009, dated 2016).
pIC50: −log10 of the molar value.

Key:
JAK2 = biological target: T1, JAK2 (Homo sapiens, UniProt O60674); test: Kinobeads assay, JAK2; type: binding; conditions: mixed Molt4/Ramos cell lysate, dot blot detection
T1 construct: endogenous in cells; host or cells: Mixed Molt4/Ramos lysate (1:2)
Summary of the method: (§1)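 Competition pulldown: compound dilution series incubated 3 h in cold room with immobilized aminopyrido-pyrimidine beads and mixed Molt4/Ramos lysate (1:2, 10 mg/mL protein) in DP buffer pH 7.4 with NP40. Bead-bound JAK2/JAK3 eluted, quantified by antibody dot blot with infrared detection; IC50 from dose-response curves.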

JAK3 = biological target: T2, JAK3 (Homo sapiens, UniProt P52333); test: Kinobeads assay, JAK3; type: binding; conditions: mixed Molt4/Ramos cell lysate, dot blot detection
T2 construct: endogenous in cells; host or cells: Mixed Molt4/Ramos lysate (1:2)
T2 sequence (P52333 1-1124): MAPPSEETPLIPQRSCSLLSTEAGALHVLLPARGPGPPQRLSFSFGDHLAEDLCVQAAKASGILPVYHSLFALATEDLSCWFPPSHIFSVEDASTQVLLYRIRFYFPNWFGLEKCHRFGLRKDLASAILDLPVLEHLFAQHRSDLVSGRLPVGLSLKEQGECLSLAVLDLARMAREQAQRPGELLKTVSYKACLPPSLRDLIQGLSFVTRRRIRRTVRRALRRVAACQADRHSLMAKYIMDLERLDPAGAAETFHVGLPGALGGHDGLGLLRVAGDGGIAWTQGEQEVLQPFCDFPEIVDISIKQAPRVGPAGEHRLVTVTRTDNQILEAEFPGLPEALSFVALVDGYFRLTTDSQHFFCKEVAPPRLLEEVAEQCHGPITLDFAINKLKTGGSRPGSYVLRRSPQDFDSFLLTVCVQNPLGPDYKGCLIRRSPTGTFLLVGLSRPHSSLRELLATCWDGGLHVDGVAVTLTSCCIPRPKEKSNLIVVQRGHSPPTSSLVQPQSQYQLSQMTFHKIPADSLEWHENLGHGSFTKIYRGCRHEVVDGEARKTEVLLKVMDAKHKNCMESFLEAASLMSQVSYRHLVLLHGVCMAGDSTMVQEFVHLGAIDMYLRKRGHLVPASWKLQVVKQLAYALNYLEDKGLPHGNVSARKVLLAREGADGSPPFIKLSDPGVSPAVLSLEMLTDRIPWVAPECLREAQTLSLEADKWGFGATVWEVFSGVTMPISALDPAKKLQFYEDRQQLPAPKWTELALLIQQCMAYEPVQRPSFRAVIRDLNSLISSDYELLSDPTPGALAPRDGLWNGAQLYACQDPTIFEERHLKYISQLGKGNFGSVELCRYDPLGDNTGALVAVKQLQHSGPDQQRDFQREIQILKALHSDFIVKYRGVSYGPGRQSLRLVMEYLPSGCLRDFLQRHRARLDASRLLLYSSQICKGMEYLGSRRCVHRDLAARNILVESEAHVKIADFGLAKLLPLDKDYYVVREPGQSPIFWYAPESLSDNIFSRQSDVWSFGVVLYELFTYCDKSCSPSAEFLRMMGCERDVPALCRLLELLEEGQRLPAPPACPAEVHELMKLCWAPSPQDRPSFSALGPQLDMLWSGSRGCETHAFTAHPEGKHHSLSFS
Summary of the method: as §1

T1 sequence (O60674 whole entry): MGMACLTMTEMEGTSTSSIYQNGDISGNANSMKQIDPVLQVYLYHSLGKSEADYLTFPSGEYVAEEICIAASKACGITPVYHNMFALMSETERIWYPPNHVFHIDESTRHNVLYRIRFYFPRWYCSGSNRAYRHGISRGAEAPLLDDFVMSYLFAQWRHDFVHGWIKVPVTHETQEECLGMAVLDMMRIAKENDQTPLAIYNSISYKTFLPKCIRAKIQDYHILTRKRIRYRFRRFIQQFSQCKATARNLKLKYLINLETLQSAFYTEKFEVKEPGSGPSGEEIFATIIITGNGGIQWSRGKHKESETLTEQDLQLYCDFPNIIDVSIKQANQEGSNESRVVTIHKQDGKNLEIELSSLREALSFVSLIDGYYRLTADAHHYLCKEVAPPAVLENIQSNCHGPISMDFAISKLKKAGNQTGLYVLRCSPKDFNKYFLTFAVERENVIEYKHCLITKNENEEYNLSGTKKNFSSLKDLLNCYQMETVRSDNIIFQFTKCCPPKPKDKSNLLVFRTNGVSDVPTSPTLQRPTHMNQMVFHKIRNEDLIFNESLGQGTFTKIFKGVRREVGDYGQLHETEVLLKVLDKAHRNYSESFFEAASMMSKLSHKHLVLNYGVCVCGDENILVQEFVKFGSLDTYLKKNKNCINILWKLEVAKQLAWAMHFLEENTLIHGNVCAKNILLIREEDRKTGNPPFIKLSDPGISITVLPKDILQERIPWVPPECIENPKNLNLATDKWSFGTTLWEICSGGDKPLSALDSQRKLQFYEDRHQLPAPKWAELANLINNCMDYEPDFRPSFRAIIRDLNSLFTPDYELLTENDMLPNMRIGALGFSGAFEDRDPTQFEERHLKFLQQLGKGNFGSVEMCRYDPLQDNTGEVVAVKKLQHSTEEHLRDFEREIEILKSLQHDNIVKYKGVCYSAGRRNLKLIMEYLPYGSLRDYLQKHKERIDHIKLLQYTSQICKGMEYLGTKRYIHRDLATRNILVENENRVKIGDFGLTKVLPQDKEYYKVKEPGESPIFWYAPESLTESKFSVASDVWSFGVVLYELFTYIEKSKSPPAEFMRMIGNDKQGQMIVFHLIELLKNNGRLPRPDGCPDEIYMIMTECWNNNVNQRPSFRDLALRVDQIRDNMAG

pIC50 (JAK2) | pIC50 (JAK3) | Compound
5.00 to 6.00 | 6.00 to 7.00 | FC(F)Cn1cc(Nc2ncc3cnn(Cc4ccccc4C4CC4)c3n2)cn1 [Example 161, 1-(2-Cyclopropylbenzyl)-N-(1-(2,2-difluoroethyl)-1H-pyrazol-4-yl)-1H-pyrazolo[3,4-d]pyrimidin-6-amine]
6.00 to 7.00 | > 7.00 | Cn1cc(Nc2ncc3cnn(Cc4c(F)c(F)cc(F)c4F)c3n2)cn1 [Example 163, N-(1-Methyl-1H-pyrazol-4-yl)-1-(2,3,5,6-tetrafluorobenzyl)-1H-pyrazolo[3,4-d]pyrimidin-6-amine]
5.00 to 6.00 | > 7.00 | Cn1cc(Nc2ncc3cnn(Cc4c(F)cccc4C(F)(F)F)c3n2)cn1 [Example 164, 1-(2-Fluoro-6-(trifluoromethyl)benzyl)-N-(1-methyl-1H-pyrazol-4-yl)-1H-pyrazolo[3,4-d]pyrimidin-6-amine]
5.00 to 6.00 | > 7.00 | Fc1ccccc1Cn1ncc2cnc(Nc3cnn(CCC4CCOCC4)c3)nc21 [Example 165, 1-(2-Fluorobenzyl)-N-(1-(2-(tetrahydro-2H-pyran-4-yl)ethyl)-1H-pyrazol-4-yl)-1H-pyrazolo[3,4-d]pyrimidin-6-amine]
5.00 to 6.00 | > 7.00 | Cn1cc(Nc2ncc3cnn(Cc4cccc(OCCO)c4)c3n2)cn1 [Example 166, 2-(3-((6-((1-Methyl-1H-pyrazol-4-yl)amino)-1H-pyrazolo[3,4-d]pyrimidin-1-yl)methyl)phenoxy)ethanol]
≤ 5.00 | > 7.00 | Cn1cc(Nc2ncc3cnn(Cc4cccc(OCCN5CCCCC5)c4)c3n2)cn1 [Example 167, N-(1-Methyl-1H-pyrazol-4-yl)-1-(3-(2-(piperidin-1-yl)ethoxy)benzyl)-1H-pyrazolo[3,4-d]pyrimidin-6-amine]
5.00 to 6.00 | > 7.00 | Cn1cc(Nc2ncc3cnn(Cc4ccccc4OCCO)c3n2)cn1 [Example 168, 2-(2-((6-((1-Methyl-1H-pyrazol-4-yl)amino)-1H-pyrazolo[3,4-d]pyrimidin-1-yl)methyl)phenoxy)ethanol]
≤ 5.00 | 6.00 to 7.00 | COCCCOc1cccc(Cn2ncc3cnc(Nc4cnn(C)c4)nc32)c1 [Example 169, 1-(3-(3-Methoxypropoxy)benzyl)-N-(1-methyl-1H-pyrazol-4-yl)-1H-pyrazolo[3,4-d]pyrimidin-6-amine]
5.00 to 6.00 | > 7.00 | Cn1cc(Nc2ncc3cnn(Cc4cccc(F)n4)c3n2)cn1 [Example 170, 1-((6-Fluoropyridin-2-yl)methyl)-N-(1-methyl-1H-pyrazol-4-yl)-1H-pyrazolo[3,4-d]pyrimidin-6-amine]
≤ 5.00 | > 7.00 | CO[C@@H](C)COc1cccc(Cn2ncc3cnc(Nc4cnn(C)c4)nc32)c1 [Example 171, (S)-1-(3-(2-Methoxypropoxy)benzyl)-N-(1-methyl-1H-pyrazol-4-yl)-1H-pyrazolo[3,4-d]pyrimidin-6-amine]
≤ 5.00 | 6.00 to 7.00 | Cn1cc(Nc2ncc3cnn(Cc4cccc(OCC5CC5)c4)c3n2)cn1 [Example 172, 1-(3-(Cyclopropylmethoxy)benzyl)-N-(1-methyl-1H-pyrazol-4-yl)-1H-pyrazolo[3,4-d]pyrimidin-6-amine]
5.00 to 6.00 | 6.00 to 7.00 | Cn1cc(Nc2ncc3cnn(Cc4ccccc4OCC4CC4)c3n2)cn1 [Example 173, 1-(2-(Cyclopropylmethoxy)benzyl)-N-(1-methyl-1H-pyrazol-4-yl)-1H-pyrazolo[3,4-d]pyrimidin-6-amine]
≤ 5.00 | 6.00 to 7.00 | C[C@@H]1CN(c2cccc(Cn3ncc4cnc(Nc5cnn(C)c5)nc43)c2)C[C@H](C)O1 [Example 175, 1-(3-((2S,6R)-2,6-Dimethylmorpholino)benzyl)-N-(1-methyl-1H-pyrazol-4-yl)-1H-pyrazolo[3,4-d]pyrimidin-6-amine]
≤ 5.00 | 6.00 to 7.00 | COCCOc1cccc(Cn2ncc3cnc(Nc4cnn(CC(F)F)c4)nc32)c1 [Example 176, N-(1-(2,2-Difluoroethyl)-1H-pyrazol-4-yl)-1-(3-(2-methoxyethoxy)benzyl)-1H-pyrazolo[3,4-d]pyrimidin-6-amine]
6.00 to 7.00 | > 7.00 | Fc1ccccc1Cn1ncc2cnc(Nc3cnn(CCCN4CCC4)c3)nc21 [Example 177, N-(1-(3-(Azetidin-1-yl)propyl)-1H-pyrazol-4-yl)-1-(2-fluorobenzyl)-1H-pyrazolo[3,4-d]pyrimidin-6-amine]
5.00 to 6.00 | > 7.00 | Cn1cc(Nc2ncc3cnn(Cc4cccc(Cl)c4Cl)c3n2)cn1 [Example 178, 1-(2,3-Dichlorobenzyl)-N-(1-methyl-1H-pyrazol-4-yl)-1H-pyrazolo[3,4-d]pyrimidin-6-amine]
5.00 to 6.00 | > 7.00 | Cc1c(O)cccc1Cn1ncc2cnc(Nc3cnn(C)c3)nc21 [Example 179]
6.00 to 7.00 | 6.00 to 7.00 | Cn1cc(Nc2ncc3cnn(Cc4ccccc4N4CCOCC4)c3n2)cn1 [Example 180, N-(1-Methyl-1H-pyrazol-4-yl)-1-(2-morpholinobenzyl)-1H-pyrazolo[3,4-d]pyrimidin-6-amine]
≤ 5.00 | > 7.00 | Cn1cc(Nc2ncc3cnn(Cc4cccc(OC5CCOC5)c4)c3n2)cn1 (stereo not shown) [Example 181, N-(1-Methyl-1H-pyrazol-4-yl)-1-(3-((tetrahydrofuran-3-yl)oxy)benzyl)-1H-pyrazolo[3,4-d]pyrimidin-6-amine]
6.00 to 7.00 | > 7.00 | Fc1ccccc1Cn1ncc2cnc(Nc3cnn(CCN4CCNCC4)c3)nc21 [Example 182, 1-(2-Fluorobenzyl)-N-(1-(2-(piperazin-1-yl)ethyl)-1H-pyrazol-4-yl)-1H-pyrazolo[3,4-d]pyrimidin-6-amine]
≤ 5.00 | 6.00 to 7.00 | CN(C)c1cccc(Cn2ncc3cnc(Nc4cnn(C)c4)nc32)n1 [Example 183]
5.00 to 6.00 | > 7.00 | COCCOc1cccc(Cn2ncc3cnc(Nc4cnn(CCCN(C)C)c4)nc32)c1 [Example 184, N-(1-(3-(Dimethylamino)propyl)-1H-pyrazol-4-yl)-1-(3-(2-methoxyethoxy)benzyl)-1H-pyrazolo[3,4-d]pyrimidin-6-amine]
≤ 5.00 | > 7.00 | COCCOc1cccc(Cn2ncc3cnc(Nc4cnn(C)c4)nc32)c1C [Example 185, 1-(3-(2-Methoxyethoxy)-2-methylbenzyl)-N-(1-methyl-1H-pyrazol-4-yl)-1H-pyrazolo[3,4-d]pyrimidin-6-amine]
≤ 5.00 | > 7.00 | Cn1cc(Nc2ncc3cnn(Cc4cccc(N[C@@H]5CCOC5)n4)c3n2)cn1 [Example 187, (R)—N-(1-Methyl-1H-pyrazol-4-yl)-1-((6-((tetrahydrofuran-3-yl)amino)pyridin-2-yl)methyl)-1H-pyrazolo[3,4-d]pyrimidin-6-amine]
≤ 5.00 | 6.00 to 7.00 | Cn1cc(Nc2ncc3cnn(Cc4cccc(N5CCCC5)n4)c3n2)cn1 [Example 188, N-(1-Methyl-1H-pyrazol-4-yl)-1-((6-(pyrrolidin-1-yl)pyridin-2-yl)methyl)-1H-pyrazolo[3,4-d]pyrimidin-6-amine]
≤ 5.00 | 6.00 to 7.00 | Cc1ccc(O)cc1Cn1ncc2cnc(Nc3cnn(C)c3)nc21 [Example 189]
6.00 to 7.00 | > 7.00 | CN1CCCC(Cn2cc(Nc3ncc4cnn(Cc5ccccc5F)c4n3)cn2)C1 (stereo not shown) [Example 192, 1-(2-Fluorobenzyl)-N-(1-((1-methylpiperidin-3-yl)methyl)-1H-pyrazol-4-yl)-1H-pyrazolo[3,4-d]pyrimidin-6-amine]
≤ 5.00 | > 7.00 | Cn1cc(Nc2ncc3cnn(Cc4cccc(OC[C@H]5CCCO5)n4)c3n2)cn1 [Example 193, (R)—N-(1-Methyl-1H-pyrazol-4-yl)-1-((6-((tetrahydrofuran-2-yl)methoxy)pyridin-2-yl)methyl)-1H-pyrazolo[3,4-d]pyrimidin-6-amine]
≤ 5.00 | 6.00 to 7.00 | CN1CCN(CCCn2cc(Nc3ncc4cnn(Cc5ccccc5F)c4n3)cn2)CC1 [Example 194, 1-(2-Fluorobenzyl)-N-(1-(3-(4-methylpiperazin-1-yl)propyl)-1H-pyrazol-4-yl)-1H-pyrazolo[3,4-d]pyrimidin-6-amine]
